Reference: ChEMBL document CHEMBL1201862, “PubChem BioAssay data set” (2004)
Active and inactive are the calls of the source.

Columns and labels:
[1] = target: T1, Polyadenylate-binding protein 1 (Homo sapiens, UniProt P11940); assay: MLLE domain peptide-binding blockers, IC50 – biochemical, fluorescence polarization, FITC-PAM2 peptide, dose response (AID 602259); assay type: functional; details: read-out: IC50_Mean
[2] = target: T1, Polyadenylate-binding protein 1; assay: MLLE binding blockers, Cy5 peptide tracer – biochemical, fluorescence polarization, Cy5-PAM2 peptide, secondary, miRNA deadenylation inhibitor project, dose response (AID 602260); assay type: functional; details: read-out: IC50_Mean
[3] = target: T2, Heat shock factor protein 1 (Mus musculus, UniProt P38532); assay: decrease of HSF1-responsive luciferase luminescence – cell-based, NIH3T3, dose retest, confirmation (AID 2382); assay type: functional;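 further: NIH3T3 fibroblasts with HSF1-driven luciferase reporter stressed by proteasome inhibitor MG132; luminescence from HSF1-driven luciferase expression after 8 hours of MG132 stress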
T2 sequence (P38532 whole entry): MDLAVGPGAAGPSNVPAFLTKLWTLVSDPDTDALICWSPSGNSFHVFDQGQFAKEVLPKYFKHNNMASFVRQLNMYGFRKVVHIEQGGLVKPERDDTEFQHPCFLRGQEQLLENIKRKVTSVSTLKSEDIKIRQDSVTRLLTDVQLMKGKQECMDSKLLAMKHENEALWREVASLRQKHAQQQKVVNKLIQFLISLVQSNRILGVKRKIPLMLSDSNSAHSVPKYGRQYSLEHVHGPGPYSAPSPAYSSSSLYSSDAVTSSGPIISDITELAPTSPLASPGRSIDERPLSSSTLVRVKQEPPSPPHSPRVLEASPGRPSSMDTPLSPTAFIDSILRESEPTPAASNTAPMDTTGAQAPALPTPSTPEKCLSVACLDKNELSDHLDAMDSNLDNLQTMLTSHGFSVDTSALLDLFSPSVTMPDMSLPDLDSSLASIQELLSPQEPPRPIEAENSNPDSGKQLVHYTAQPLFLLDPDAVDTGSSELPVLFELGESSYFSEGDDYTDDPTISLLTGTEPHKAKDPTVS

[4] = THP-1 cell cytotoxicity, dose response, cytotoxicity control for non-replicating M. tuberculosis project (AID 489025); assay type: functional
[5] = microbe, parasite or virus in culture; assay type: functional; details: Mycobacterium tuberculosis
[6] = intracellular Trypanosoma cruzi inhibitors in host cells – cell-based, plate reader, cherry-pick samples, set 3, dose response (AID 651818); assay type: functional;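 further: compounds incubated with infected cells for about four days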
[7] = target: T3, Corticotropin-releasing factor receptor 2/Corticotropin-releasing factor-binding protein (Homo sapiens, UniProt P24387+Q13324); assay: Dose Response confirmation of uHTS hits for small molecule antagonists of the CRF-binding protein and CRF-R2 receptor complex.; assay type: functional; details: read-out: IC50_Mean
T3 sequence (Q13324 whole entry): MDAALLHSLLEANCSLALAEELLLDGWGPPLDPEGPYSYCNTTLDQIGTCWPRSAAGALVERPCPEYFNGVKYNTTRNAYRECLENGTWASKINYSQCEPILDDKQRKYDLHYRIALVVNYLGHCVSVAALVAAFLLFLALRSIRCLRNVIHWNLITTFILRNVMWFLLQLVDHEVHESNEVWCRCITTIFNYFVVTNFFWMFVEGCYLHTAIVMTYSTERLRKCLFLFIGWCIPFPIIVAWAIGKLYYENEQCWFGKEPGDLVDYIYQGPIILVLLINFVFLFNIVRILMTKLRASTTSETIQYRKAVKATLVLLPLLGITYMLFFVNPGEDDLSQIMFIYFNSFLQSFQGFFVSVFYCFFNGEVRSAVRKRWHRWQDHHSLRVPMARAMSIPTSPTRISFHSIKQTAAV
T3 sequence (P24387 whole entry): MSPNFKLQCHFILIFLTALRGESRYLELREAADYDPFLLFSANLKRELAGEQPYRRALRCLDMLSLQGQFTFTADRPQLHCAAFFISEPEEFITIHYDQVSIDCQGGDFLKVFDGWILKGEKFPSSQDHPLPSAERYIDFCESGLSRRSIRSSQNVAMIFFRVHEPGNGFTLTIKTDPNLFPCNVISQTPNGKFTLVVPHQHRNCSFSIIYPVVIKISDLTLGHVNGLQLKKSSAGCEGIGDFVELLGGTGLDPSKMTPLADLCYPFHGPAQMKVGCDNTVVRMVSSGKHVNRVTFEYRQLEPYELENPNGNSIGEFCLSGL

[8] = target: T3, Corticotropin-releasing factor receptor 2/Corticotropin-releasing factor-binding protein; assay: activators of CRF receptor 2 with binding protein – uHTS hits, confirmation (AID 602473); assay type: functional; details: read-out: EC50_Mean
Genome polyprotein = Genome polyprotein (dengue virus type 2, UniProt P29990); assay: flavivirus cap methylation enzyme inhibition – biochemical, confirmation dose response, primary screen (AID 588689); assay type: functional
[9] = target: T4, Replicative DNA helicase DnaB (Mycobacterium tuberculosis, UniProt P9WMR3); assay: DnaB intein splicing inhibitors, dose response, biochemical, cell-free fluorescence (AID 449749); assay type: functional
T4 sequence (P9WMR3 whole entry): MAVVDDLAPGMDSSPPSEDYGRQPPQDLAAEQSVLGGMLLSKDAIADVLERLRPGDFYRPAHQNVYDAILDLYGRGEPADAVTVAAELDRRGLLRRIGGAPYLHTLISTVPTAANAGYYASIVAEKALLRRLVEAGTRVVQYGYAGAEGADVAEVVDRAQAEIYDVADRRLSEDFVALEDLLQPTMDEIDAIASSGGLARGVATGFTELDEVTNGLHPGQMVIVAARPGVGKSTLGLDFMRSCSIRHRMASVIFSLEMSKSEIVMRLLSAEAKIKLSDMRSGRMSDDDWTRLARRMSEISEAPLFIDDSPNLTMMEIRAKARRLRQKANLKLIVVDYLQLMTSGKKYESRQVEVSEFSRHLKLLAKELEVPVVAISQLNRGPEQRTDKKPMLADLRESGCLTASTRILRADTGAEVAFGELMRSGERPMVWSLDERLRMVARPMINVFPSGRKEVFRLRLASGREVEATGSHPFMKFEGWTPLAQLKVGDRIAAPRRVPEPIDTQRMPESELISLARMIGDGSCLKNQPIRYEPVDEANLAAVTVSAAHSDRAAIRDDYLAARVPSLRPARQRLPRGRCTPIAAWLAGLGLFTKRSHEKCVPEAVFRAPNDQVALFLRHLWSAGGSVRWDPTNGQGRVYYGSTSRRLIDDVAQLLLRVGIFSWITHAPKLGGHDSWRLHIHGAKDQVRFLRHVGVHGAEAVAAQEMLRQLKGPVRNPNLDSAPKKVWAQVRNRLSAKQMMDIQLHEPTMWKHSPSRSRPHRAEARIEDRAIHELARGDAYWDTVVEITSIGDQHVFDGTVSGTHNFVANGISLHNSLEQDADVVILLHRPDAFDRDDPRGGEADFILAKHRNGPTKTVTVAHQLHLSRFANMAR

Protein RecA = target: T5, Protein RecA (Mycobacterium tuberculosis, UniProt P9WHJ3); assay: Fluorescence Cell-Free Homogeneous Dose Retest to Identify Inhibitors of RecA-Intein Splicing Activity. [Related pubchem assays (depositor defined):AID2097, AID2223, AID489010, AID492950]; assay type: functional
T5 sequence (P9WHJ3 whole entry): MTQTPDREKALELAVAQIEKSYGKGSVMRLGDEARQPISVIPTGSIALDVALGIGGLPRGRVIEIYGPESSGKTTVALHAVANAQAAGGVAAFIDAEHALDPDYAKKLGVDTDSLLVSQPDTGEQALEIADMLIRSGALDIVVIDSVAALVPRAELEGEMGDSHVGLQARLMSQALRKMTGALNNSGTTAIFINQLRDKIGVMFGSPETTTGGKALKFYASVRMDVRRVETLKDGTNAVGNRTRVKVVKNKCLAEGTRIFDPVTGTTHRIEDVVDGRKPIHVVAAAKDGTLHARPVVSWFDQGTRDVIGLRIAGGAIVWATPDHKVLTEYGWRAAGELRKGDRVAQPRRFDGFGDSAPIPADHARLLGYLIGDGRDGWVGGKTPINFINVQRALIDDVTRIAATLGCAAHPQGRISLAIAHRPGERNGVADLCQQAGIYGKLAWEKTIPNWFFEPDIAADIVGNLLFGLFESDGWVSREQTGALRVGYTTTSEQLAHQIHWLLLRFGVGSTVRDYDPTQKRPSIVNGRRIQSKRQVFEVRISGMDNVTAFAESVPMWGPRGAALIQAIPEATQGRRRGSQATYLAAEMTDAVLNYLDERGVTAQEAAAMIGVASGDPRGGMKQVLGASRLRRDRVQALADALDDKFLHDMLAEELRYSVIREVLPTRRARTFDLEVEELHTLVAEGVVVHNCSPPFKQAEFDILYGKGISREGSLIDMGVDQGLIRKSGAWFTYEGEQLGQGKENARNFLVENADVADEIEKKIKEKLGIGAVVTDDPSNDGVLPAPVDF

BJ [10] = assay: BJ-TERT fibroblast viability loss – cell-based, RAS-independent, luminescence, dose response (AID 1933); assay type: functional; details: Homo sapiens
BJ [11] = assay: BJ-TERT-LT-ST fibroblast viability loss – cell-based, RAS-independent, luminescence, dose response (AID 1935); assay type: functional; details: Homo sapiens;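 further: BJ fibroblasts immortalized with TERT plus LT and ST oncogenes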
[12] = DRD fibroblast viability loss – cell-based, non-viral oncogenic, luminescence, dose response (AID 1934); assay type: functional; details: Homo sapiens
BJ [13] = assay: cells; assay type: functional, cell-based; details: Homo sapiens

T1 sequence (P11940 whole entry, the tested form may be a part): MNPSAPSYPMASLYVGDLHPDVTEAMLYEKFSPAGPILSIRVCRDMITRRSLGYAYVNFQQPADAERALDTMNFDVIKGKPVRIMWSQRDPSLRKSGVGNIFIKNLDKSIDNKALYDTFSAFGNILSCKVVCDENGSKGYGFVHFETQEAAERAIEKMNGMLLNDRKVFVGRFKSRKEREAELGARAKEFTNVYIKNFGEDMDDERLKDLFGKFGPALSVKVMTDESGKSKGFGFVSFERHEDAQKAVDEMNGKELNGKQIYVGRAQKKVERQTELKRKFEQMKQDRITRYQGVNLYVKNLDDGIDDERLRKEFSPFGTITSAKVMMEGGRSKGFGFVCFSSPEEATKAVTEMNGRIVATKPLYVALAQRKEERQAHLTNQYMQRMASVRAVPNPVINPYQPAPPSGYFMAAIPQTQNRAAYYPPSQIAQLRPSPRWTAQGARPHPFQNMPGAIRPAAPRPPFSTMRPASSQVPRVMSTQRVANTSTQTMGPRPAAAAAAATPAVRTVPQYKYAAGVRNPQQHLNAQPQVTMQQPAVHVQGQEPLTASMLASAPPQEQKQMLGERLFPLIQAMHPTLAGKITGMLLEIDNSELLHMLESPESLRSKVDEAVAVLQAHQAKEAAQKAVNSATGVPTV
Genome polyprotein, sequence (P29990 2492-3391 limits assumed): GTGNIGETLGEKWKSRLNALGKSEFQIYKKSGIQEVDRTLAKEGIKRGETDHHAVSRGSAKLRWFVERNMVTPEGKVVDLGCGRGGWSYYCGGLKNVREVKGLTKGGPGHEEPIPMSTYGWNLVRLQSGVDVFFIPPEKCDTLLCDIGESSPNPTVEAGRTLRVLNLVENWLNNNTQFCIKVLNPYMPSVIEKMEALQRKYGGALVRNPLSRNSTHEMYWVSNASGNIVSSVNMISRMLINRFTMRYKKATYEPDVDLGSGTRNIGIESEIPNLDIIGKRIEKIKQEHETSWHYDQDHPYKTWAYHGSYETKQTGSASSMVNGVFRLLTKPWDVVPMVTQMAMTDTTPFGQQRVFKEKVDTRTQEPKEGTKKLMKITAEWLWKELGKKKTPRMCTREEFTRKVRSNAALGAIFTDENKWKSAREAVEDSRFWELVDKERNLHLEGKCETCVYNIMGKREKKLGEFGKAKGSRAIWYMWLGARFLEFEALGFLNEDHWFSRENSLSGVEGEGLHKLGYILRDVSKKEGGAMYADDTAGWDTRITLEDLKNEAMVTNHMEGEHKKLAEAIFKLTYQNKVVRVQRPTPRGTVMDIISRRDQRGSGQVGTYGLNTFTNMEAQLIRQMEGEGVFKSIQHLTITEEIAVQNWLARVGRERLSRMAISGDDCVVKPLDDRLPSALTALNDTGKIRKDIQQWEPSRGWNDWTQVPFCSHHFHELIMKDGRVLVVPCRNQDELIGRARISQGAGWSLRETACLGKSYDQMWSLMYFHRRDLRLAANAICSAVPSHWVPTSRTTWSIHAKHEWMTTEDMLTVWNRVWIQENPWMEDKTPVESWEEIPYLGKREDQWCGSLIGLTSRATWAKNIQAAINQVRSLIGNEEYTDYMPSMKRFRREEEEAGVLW

CCOC(=O)c1c(N)sc2c1CCS(=O)(=O)C2
IC50 [1]: > 66 µM (inactive)
IC50 [2]: > 66 µM (inactive)

CCCn1c(O)c(N=NC(=O)c2ccco2)c2ccccc21
EC50 [3]: > 195 µM (not active)
CC50 [4]: > 40 µM (active)
CC50 [5]: > 40 µM (active)

C[C@@H]1CN([C@H](C)CO)C(=O)Cc2cc(NC(=O)C3CCCCC3)ccc2O[C@H]1CN(C)Cc1ccc(Oc2ccccc2)cc1
AC50 [6]: 2.45 µM (active)

CCN(c1ccccc1)S(=O)(=O)c1ccc(NC(=O)c2ccco2)cc1
IC50 [7]: > 47.1 µM (inactive)
EC50 [8]: > 53 µM (inactive)

CN(CC1CCOCC1)C(=O)CC1C(=O)NCCN1Cc1ccc(Cl)c(F)c1 (stereo not given)
IC50 [7]: > 47.1 µM (inactive)
EC50 [8]: > 53 µM (inactive)

CC(SC1=NCCS1)C(=O)Nc1nnc(-c2ccc(Br)cc2)s1 (stereo not given)
IC50 [7]: > 47.1 µM (inactive)
EC50 [8]: > 53 µM (inactive)

CCOC(=O)C1C(C)=CC(=O)CC1c1ccco1 (stereo not given)
IC50 [7]: > 47.1 µM (inactive)
EC50 [8]: > 53 µM (inactive)

COc1ccc(S(=O)(=O)N(C)C[C@@H]2OCCCC[C@@H](C)Oc3ccc(NC(=O)Nc4ccc(C(F)(F)F)cc4)cc3C(=O)N([C@H](C)CO)C[C@@H]2C)cc1
AC50 [6]: 5.92 µM (active)

CCOC(=O)CSc1nc2c(c(=O)[nH]c(=O)n2C)n1C/C=C(/C)Cl
IC50 [1]: > 66 µM (inactive)
IC50 [2]: > 66 µM (inactive)

COC(CNc1ncnc2c1cnn2C)OC
IC50 [7]: > 47.1 µM (inactive)
EC50 [8]: > 53 µM (inactive)

CC1=NN(c2ccccc2)C(=O)/C1=C/c1cccs1
IC50 (Genome polyprotein): 46.8 µM (active)
AC50 [9]: 4.26 µM (active)
EC50 (Protein RecA): 4.53 µM (active)

Cc1n[nH]c2c(=S)[nH]c(=O)[nH]c12
IC50 [1]: > 66 µM (inactive)
IC50 [2]: > 66 µM (inactive)

C[C@H](CO)N1C[C@H](C)[C@H](CN(C)Cc2ccc(C(F)(F)F)cc2)Oc2ccc(NC(=O)Nc3cccc4ccccc34)cc2C1=O
AC50 [6]: 2.81 µM (active)

CC(C)(C)C(=O)Nc1c2c(nn1-c1ccc(F)cc1)CSC2
IC50 [1]: > 66 µM (inactive)
IC50 [2]: > 66 µM (inactive)

CN(C)c1ccc(C(=O)c2ccccc2C(=O)O)cc1[N+](=O)[O-]
EC50 (BJ [10]): > 150 µM (not active)
EC50 (BJ [11]): > 150 µM (not active)
EC50 [12]: 102 µM (active)
EC50 (BJ [13]): > 150 µM (not active)

Cc1cc(C(C2C(=O)CC(C)(C)CC2=O)C2C(=O)CC(C)(C)CC2=O)cc(C)c1OC(F)F
IC50 (Genome polyprotein): 43.5 µM (active)

C[C@@H]1CN([C@H](C)CO)C(=O)c2cccc(NC(=O)Nc3ccc(C(F)(F)F)cc3)c2O[C@H]1CN(C)C(=O)Nc1ccc2c(c1)OCO2
AC50 [6]: 6.12 µM (active)

Cc1ccsc1C(=O)N/N=C/c1ccc2c(c1)OCO2
EC50 (BJ [10]): 15.4 µM (active)
EC50 (BJ [11]): > 150 µM (inconclusive)
EC50 [12]: 9.95 µM (inconclusive)
EC50 (BJ [13]): 11.6 µM (inconclusive)

C/C(=N\Nc1cc(C)nc(-c2ccccc2)n1)c1cccc([N+](=O)[O-])c1
IC50 [7]: > 47.1 µM (inactive)
EC50 [8]: > 53 µM (inactive)

O=C1CC(SC(=S)C2CCCC2=O)C(=O)N1 (stereo not given)
IC50 (Genome polyprotein): 45.4 µM (active)
IC50 [1]: > 66 µM (inactive)
IC50 [2]: > 66 µM (inactive)

COc1ccc(C2=NN=C(c3ccco3)Nc3ccc(F)cc32)cc1
IC50 [7]: > 47.1 µM (inactive)
EC50 [8]: > 53 µM (inactive)

COc1ccc(C(=O)NC(=S)Nc2cccc(NC(=O)c3ccco3)c2)cc1[N+](=O)[O-]
IC50 [1]: > 66 µM (inactive)
IC50 [2]: > 66 µM (inactive)

C[C@H]1CN([C@@H](C)CO)C(=O)Cc2cc(NC(=O)CCCCCC(=O)Nc3ccccc3N)ccc2O[C@@H]1CN(C)Cc1ccc(C(F)(F)F)cc1
AC50 [6]: 5.01 µM (active)

COc1ccccc1/C=C1/C(=O)ON=C1C
IC50 (Genome polyprotein): > 100 µM (active)

COc1ccc(NC(=O)CCCC2CCCCC2)cc1S(=O)(=O)N1CCCCC1
IC50 [7]: > 47.1 µM (inactive)
EC50 [8]: > 53 µM (inactive)

C[C@@H]1CCCCO[C@@H](CN(C)C(=O)Nc2ccc(C(F)(F)F)cc2)[C@@H](C)CN([C@H](C)CO)C(=O)c2cc(NS(=O)(=O)c3ccc(F)cc3)ccc2O1
AC50 [6]: 1.85 µM (active)

O=C(CSc1nncc2ccccc12)N1CCOCC1
IC50 [1]: > 66 µM (inactive)
IC50 [2]: > 66 µM (inactive)

C[C@H](CO)N1C[C@H](C)[C@H](CN(C)Cc2ccc(Oc3ccccc3)cc2)Oc2c(NC(=O)c3cnccn3)cccc2C1=O
AC50 [6]: 5.22 µM (active)

Cc1n[nH]c(O)c1C(c1ccc(-c2ccc(Cl)c(C(=O)O)c2)o1)c1c(O)n[nH]c1C
IC50 (Genome polyprotein): > 100 µM (active)
